According to ChEMBL document CHEMBL1127156, “m-Alkyl, ,,-trifluoroacetophenones: A new class of potent transition state analog inhibitors of acetylcholinesterase” (Bioorg Med Chem Lett, 1993):

Molecular target: Acetylcholinesterase (Torpedo californica, UniProt P04058)
Test: Tested for the ability to inhibit Acetylcholinesterase (AChE) from Torpedo californica
Parameters: species or system Tetronarce californica

Sequence of Acetylcholinesterase (P04058 whole entry): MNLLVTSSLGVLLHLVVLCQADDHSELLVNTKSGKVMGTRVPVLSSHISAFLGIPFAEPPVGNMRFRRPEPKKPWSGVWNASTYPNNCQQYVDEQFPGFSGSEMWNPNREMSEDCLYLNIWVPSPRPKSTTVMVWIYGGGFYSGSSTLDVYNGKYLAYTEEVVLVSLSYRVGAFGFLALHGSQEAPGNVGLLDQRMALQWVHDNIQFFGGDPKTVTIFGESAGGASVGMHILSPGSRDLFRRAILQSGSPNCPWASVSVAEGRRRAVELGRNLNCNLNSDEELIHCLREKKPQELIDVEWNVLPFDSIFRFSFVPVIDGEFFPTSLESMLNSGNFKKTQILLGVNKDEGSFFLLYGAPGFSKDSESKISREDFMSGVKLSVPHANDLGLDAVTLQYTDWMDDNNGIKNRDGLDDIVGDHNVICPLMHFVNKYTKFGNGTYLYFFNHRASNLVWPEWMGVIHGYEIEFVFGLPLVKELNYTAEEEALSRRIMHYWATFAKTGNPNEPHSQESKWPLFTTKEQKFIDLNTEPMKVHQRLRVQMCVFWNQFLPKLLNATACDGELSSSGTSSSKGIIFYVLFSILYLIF

Structure (SMILES) | Ki [nM]
CC(C)c1cccc(C(=O)C(F)(F)F)c1 | 0.0085
O=C(c1cccc(C(F)(F)F)c1)C(F)(F)F | 0.39
CC(C)(C)c1cccc(C(=O)C(F)(F)F)c1 | 0.0037
CCc1cccc(C(=O)C(F)(F)F)c1 | 0.39
Cc1cccc(C(=O)C(F)(F)F)c1 | 2.4
